Laboratory results from ChEMBL document CHEMBL1155458, “Synthesis, inhibitory activity of cholinesterases, and neuroprotective profile of novel 1,8-naphthyridine derivatives” (J Med Chem, 2010).

Tests used:
SH-SY5Y [1] = assay: Neuroprotective activity in human SH-SY5Y cells assessed as protection against okadaic acid-induced cell death at 1 uM after 24 hrs by MTT assay; format: functional
SH-SY5Y [2] = assay: Neuroprotective activity in human SH-SY5Y cells assessed as protection against rotenone/oligomycin A-induced cell death at 1 uM after 24 hrs by LDH release assay; format: functional
Acetylcholinesterase [3] = biological target: Acetylcholinesterase (Electrophorus electricus, UniProt O42275)
Description: Inhibition of electric eel AChE by Ellman's method

Cholinesterase = Cholinesterase (Equus caballus, UniProt P81908)
Description: Inhibition of equine serum BuChE by Ellman's method

[4] = biological target: T1, Acetylcholinesterase (Bos taurus) (UniProt P23795); assay: Displacement of propidium iodide from AChE in bovine erythrocytes at 10 uM after 15 mins by fluorescence plate reader; format: cell-based
T1 sequence (whole entry): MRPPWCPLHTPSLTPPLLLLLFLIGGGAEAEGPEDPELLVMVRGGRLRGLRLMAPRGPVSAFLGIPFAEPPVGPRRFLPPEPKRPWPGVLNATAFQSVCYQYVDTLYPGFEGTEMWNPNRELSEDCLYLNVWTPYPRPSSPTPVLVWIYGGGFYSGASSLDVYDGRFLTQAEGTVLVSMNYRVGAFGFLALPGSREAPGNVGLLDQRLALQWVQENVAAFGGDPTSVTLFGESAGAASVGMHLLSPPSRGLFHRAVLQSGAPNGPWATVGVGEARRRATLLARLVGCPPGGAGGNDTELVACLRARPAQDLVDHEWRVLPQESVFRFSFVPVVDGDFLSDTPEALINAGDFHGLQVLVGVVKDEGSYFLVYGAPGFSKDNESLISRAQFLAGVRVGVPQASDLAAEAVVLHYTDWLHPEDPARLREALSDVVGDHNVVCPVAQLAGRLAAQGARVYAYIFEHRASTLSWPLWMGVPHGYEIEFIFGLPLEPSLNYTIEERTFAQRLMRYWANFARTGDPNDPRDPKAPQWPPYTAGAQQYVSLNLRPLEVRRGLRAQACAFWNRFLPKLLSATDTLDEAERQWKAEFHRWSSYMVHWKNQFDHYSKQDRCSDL

Acetylcholinesterase [5] = biological target: T2, Acetylcholinesterase (Bos taurus, UniProt P23795); assay: biochemical
T2 sequence (P23795 whole entry): T1 sequence (whole entry)
Description: Displacement of propidium iodide from AChE in bovine erythrocytes after 15 mins by fluorescence plate reader

Acetylcholinesterase [6] = biological target: T3, Acetylcholinesterase (Homo sapiens, UniProt P22303)
Description: Inhibition of AChE in human erythrocytes by Ellman's method

SH-SY5Y [7] = assay: Cytotoxicity against human SH-SY5Y cells assessed as LDH release at 1 uM after 24 hrs by spectrophotometry (reference value: 17.7%); format: cell-based
[8] = biological target: T1, Acetylcholinesterase (Bos taurus); conditions: 1 mM
Description: Displacement of propidium iodide from AChE in bovine erythrocytes at 1 mM after 15 mins by fluorescence plate reader

Acetylcholinesterase [9] = biological target: T3, Acetylcholinesterase; assay: Inhibition of AChE (unknown orign) by Lineweaver-Burke plot
Rattus norvegicus [10] = organism: Rattus norvegicus; assay: Prevention of okadaic acid-induced inhibition of PP2A in rat brain cortex assessed as increase in inorganic phosphorus release at 1 uM after 1 hr by malachite green assay relative to control; format: tissue-based; set-up: scale not given: the % may be the effect or the level left
Rattus norvegicus [11] = organism: Rattus norvegicus; assay: Prevention of okadaic acid-induced inhibition of PP2A in rat brain cortex assessed as increase in inorganic phosphorus release at 10 uM after 1 hr by malachite green assay relative to control; format: tissue-based; set-up: scale not given: the % may be the effect or the level left
Hippocampus [12] = assay: Neuroprotective activity in isolated rat brain hippocampal slices assessed as protection against oxygen and glucose deprivation-induced cell death after 24 hrs by MTT assay; format: functional, tissue-based
SH-SY5Y [13] = assay: Neuroprotective activity in human SH-SY5Y cells assessed as protection against amyloid beta(1-42)-induced cell death at 10 uM after 24 hrs by MTT assay; format: functional
Rattus norvegicus [14] = organism: Rattus norvegicus; assay: Prevention of okadaic acid-induced inhibition of PP2A in rat brain cortex assessed as increase in inorganic phosphorus release after 1 hr by malachite green assay relative to control; format: tissue-based
SH-SY5Y [15] = assay: Neuroprotective activity in human SH-SY5Y cells assessed as protection against amyloid beta(1-42)-induced cell death at 1 uM after 24 hrs by MTT assay; format: functional
SH-SY5Y [16] = assay: Neuroprotective activity in human SH-SY5Y cells assessed as protection against amyloid beta(1-42)-induced cell death after 24 hrs by MTT assay; format: functional, cell-based
Hippocampus [17] = assay: Neuroprotective activity in isolated rat brain hippocampal slices assessed as protection against oxygen and glucose deprivation-induced cell death at 30 uM after 24 hrs by MTT assay; format: functional

T3 sequence (P22303 whole entry): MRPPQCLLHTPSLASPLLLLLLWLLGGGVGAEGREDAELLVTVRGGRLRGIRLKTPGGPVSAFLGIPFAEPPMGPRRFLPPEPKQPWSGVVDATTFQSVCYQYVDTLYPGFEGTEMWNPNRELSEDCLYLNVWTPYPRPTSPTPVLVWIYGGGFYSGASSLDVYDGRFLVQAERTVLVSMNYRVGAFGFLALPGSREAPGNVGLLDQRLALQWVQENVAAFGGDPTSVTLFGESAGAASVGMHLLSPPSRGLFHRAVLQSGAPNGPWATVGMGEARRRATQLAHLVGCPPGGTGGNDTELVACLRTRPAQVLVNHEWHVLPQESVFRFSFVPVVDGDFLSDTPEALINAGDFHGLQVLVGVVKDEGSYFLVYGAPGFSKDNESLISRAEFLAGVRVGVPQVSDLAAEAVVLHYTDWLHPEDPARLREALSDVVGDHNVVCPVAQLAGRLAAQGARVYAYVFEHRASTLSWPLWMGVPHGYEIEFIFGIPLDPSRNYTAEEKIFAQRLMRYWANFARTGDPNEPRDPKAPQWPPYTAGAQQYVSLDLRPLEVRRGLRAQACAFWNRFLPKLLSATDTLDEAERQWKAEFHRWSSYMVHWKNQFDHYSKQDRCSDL
Chain of Acetylcholinesterase (Electrophorus electricus, UniProt O42275) (O42275 whole entry): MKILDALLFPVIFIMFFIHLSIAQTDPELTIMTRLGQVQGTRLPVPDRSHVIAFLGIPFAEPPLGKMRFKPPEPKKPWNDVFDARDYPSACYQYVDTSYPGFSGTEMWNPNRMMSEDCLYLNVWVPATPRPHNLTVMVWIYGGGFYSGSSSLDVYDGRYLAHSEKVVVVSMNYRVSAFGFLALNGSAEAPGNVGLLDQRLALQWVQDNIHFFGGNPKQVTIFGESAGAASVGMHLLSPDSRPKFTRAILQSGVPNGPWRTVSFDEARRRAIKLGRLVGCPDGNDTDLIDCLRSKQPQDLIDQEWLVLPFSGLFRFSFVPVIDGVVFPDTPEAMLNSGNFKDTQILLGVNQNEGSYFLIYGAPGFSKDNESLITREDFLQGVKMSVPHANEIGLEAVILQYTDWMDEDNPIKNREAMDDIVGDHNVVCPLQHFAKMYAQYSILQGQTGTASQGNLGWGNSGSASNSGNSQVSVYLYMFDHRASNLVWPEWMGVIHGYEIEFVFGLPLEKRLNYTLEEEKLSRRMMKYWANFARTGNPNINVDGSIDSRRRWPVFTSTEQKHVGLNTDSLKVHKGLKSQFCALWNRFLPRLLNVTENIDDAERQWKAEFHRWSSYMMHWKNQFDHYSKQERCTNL
Chain of Cholinesterase (P81908 whole entry): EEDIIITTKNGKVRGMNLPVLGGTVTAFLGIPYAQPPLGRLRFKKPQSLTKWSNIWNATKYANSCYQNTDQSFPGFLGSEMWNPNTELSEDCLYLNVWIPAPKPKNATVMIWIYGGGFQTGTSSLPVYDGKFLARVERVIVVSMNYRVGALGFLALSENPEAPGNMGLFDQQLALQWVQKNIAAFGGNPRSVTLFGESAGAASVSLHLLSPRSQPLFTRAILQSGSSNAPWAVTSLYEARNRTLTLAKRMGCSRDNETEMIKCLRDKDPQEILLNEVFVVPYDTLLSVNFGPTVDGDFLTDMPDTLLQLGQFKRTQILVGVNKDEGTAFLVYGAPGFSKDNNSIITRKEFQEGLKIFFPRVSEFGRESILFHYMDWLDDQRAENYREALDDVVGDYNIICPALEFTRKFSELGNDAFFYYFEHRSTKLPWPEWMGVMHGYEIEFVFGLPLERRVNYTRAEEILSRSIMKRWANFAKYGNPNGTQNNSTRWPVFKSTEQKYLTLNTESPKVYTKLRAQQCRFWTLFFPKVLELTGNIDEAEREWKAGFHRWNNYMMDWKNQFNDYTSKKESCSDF

SMILES | Activity (SH-SY5Y [1]) [%] | Activity (SH-SY5Y [2]) [%] | IC50 (Acetylcholinesterase [3]) [nM] | IC50 (Cholinesterase) [nM] | inhibition [4] [%] | IC50 (Acetylcholinesterase [5]) [nM] | IC50 (Acetylcholinesterase [6]) [nM] | Activity (SH-SY5Y [7]) [%] | further results
C=C1[C@@H](O)[C@@H]2O[C@]3(CC[C@H](/C=C/[C@@H](C)[C@@H]4CC(C)=C[C@@]5(O[C@H](C[C@@](C)(O)C(=O)O)CC[C@H]5O)O4)O3)CC[C@H]2O[C@@H]1[C@@H](O)C[C@H](C)[C@H]1O[C@@]2(CCCCO2)CC[C@H]1C [OKADAIC ACID] | 80.5 | – | – | – | – | – | – | – | –
CCOC(=O)c1c(C)nc2nc3c(c(N)c2c1-c1ccccc1)CCCC3 | 22.1 | 26.8 | 800 | – | – | – | – | – | –
CCOC(=O)c1cc2c(N)c3c(nc2nc1C)CCCCC3 | 28.9 | 31.1 | 310 | 2100 | 10 | 310 | 2000 | 19.9 | –
COC(=O)c1cc2c(N)c3c(nc2nc1C)CCCCC3 | 38.7 | 36.1 | 360 | 490 | 11 | 360 | 2000 | 20.4 | –
COc1ccc2[nH]cc(CCNC(C)=O)c2c1 [MELATONIN] | – | 33.8 | – | – | – | – | – | – | –
CCOC(=O)c1cc2c(N)c3c(nc2nc1C)CCC3 | 39.5 | 28.7 | 350 | 39000 | 20 | 350 | 2100 | 12.3 | –
COC(=O)c1cc2c(N)c3c(nc2nc1C)CCC3 | 36.5 | 37.5 | 120 | 5000 | 10 | 120 | 1900 | 22.1 | –
CCOC(=O)c1cc2c(N)c3c(nc2nc1C)CCCCCC3 | 33.8 | 32.6 | 400 | 5300 | 10 | 400 | 1800 | 12.7 | –
COC(=O)c1cc2c(N)c3c(nc2nc1C)CCCCCC3 | 26.2 | 42.3 | 250 | 4070 | 16 | 250 | 1800 | 21.6 | –
COc1ccc2c3c1O[C@H]1C[C@@H](O)C=C[C@@]31CCN(C)C2 [GALANTAMINE] | 0 | – | – | – | – | – | – | – | –
C=CC[N+](C)(C)c1ccc(CCC(=O)CCc2ccc([N+](C)(C)CC=C)cc2)cc1 | – | – | – | – | – | – | – | – | inhibition [8]: 29%
CC(=O)N[C@@H](CS)C(=O)O [ACETYLCYSTEINE] | – | 33.4 | – | – | – | – | – | – | –
COC(=O)c1cc2c(N)c3c(nc2nc1C)CCCC3 | 44.8 | 25.8 | 93 | 3400 | 16 | 93 | 1000 | 11.6 | –
CCOC(=O)c1cc2c(N)c3c(nc2nc1C)CCCC3 | 75 | 48.4 | – | – | 10 | 60 | – | 20.9 | Ki (Acetylcholinesterase [9]): 24 nM; Activity (Rattus norvegicus [10]): 77%; Activity (Rattus norvegicus [11]): 91%; Activity (Hippocampus [12]): Dose-dependent effect; EC50 (Hippocampus [12]): 6000 nM; Activity (SH-SY5Y [13]): 10%; Activity (Rattus norvegicus [14]): Dose-dependent effect; Activity (SH-SY5Y [15]): 54%; Activity (SH-SY5Y [16]): Dose-dependent effect; Activity (Hippocampus [17]): 65.5%
